Assay [1] deals with T1, EGFR^Del19/T790M/C797S (Homo sapiens, UniProt P00533, C797S/DEL746-750/T790M). Put plainly: EGFR inhibitory activity assay (TK-substrate-biotin/ATP, 665/615 ratio). The class given is biochemical. To be noted: kinase inhibition. The procedure: EGFR Inhibitory Activity Assay
(2) The plate was sealed, and centrifuged at 1,000 g for 1 min;
(4) 5 μl of the 2×EGFR protein working solution was added to the 384-well plate from step (2), centrifuged at 1,000 g for 30 s, and allowed to stand at room temperature (mixed thoroughly) for 10 min;
(6) 5 µL of the TK-substrate-biotin and ATP (the mixture prepared in step (5)) was added to the 384-well plate from step (4) to initiate the reaction;
(7) The mixture was centrifuged at 1,000 g for 30 s; the plate was sealed, and allowed to stand (and reacted) at room temperature for 40 min;
(10) The mixture was centrifuged at 1,000 g for 30 s, and allowed to stand (reacted) at room temperature for 1 h;
Formula of inhibition rate (%): […]
The nonlinear regression curve (dose response-variable slope) between the value of inhibition rate (%) and the logarithm of compound concentration was fitted with graphpad prism 8.0, the effect dose curve of compound was drawn, and the IC50 value was calculated.

The target in assay [2] is T2, EGFR^L858R/T790M/C797S (Homo sapiens, UniProt P00533, C797S/L858R/T790M). Described as above. The note with it: kinase inhibition. The class given is biochemical. A digest of the protocol:
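HTRF kinase assay: enzyme preincubated with compound 10 min at room temperature, then reacted with biotinylated TK substrate and ATP for 40 min at room temperature.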

In assay [3] the target is Ba/F3(EGFR^Del19/T790M/C797S) cells (Homo sapiens, UniProt P00533, DEL746-750/T790M/C797S, cells depend on it). Put plainly: Assay of activity on Ba/F3 cells (CTG, 72 h). The class given is cell-based. The note with it: read-out: IC50 (nM) Ba/F3 (EGFR^Del19/T790M/C797S). A digest of the protocol: (§1)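 Ba/F3 cells dependent on each EGFR triple mutant were exposed to 3-fold compound dilutions for 72 h at 37° C, 5% CO2, with CellTiter-Glo luminescence as the read-out.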

Assay [4] addresses Ba/F3(EGFR^L858R/T790M/C797S) cells (Homo sapiens, UniProt P00533, T790M/C797S/L858R, cells depend on it). Put plainly: Assay of activity on Ba/F3 cells (CTG, 72 h). In kind it is cell-based. The note with it: read-out: IC50 (nM) Ba/F3 (EGFR^L858R/T790M/C797S). A digest of the protocol: as §1
A further assay has as its target ALK (Homo sapiens, UniProt Q9UM73). Put plainly: Assay of activity on ALK kinase. The class given is biochemical. The note with it: kinase inhibition.
The target of a further assay is ALK^G1202R (Homo sapiens, UniProt Q9UM73, G1202R). Description: Assay of activity on ALK kinase. In kind it is biochemical. The note with it: kinase inhibition.
Sequence of ALK^G1202R (Q9UM73 19-1620 G1202R): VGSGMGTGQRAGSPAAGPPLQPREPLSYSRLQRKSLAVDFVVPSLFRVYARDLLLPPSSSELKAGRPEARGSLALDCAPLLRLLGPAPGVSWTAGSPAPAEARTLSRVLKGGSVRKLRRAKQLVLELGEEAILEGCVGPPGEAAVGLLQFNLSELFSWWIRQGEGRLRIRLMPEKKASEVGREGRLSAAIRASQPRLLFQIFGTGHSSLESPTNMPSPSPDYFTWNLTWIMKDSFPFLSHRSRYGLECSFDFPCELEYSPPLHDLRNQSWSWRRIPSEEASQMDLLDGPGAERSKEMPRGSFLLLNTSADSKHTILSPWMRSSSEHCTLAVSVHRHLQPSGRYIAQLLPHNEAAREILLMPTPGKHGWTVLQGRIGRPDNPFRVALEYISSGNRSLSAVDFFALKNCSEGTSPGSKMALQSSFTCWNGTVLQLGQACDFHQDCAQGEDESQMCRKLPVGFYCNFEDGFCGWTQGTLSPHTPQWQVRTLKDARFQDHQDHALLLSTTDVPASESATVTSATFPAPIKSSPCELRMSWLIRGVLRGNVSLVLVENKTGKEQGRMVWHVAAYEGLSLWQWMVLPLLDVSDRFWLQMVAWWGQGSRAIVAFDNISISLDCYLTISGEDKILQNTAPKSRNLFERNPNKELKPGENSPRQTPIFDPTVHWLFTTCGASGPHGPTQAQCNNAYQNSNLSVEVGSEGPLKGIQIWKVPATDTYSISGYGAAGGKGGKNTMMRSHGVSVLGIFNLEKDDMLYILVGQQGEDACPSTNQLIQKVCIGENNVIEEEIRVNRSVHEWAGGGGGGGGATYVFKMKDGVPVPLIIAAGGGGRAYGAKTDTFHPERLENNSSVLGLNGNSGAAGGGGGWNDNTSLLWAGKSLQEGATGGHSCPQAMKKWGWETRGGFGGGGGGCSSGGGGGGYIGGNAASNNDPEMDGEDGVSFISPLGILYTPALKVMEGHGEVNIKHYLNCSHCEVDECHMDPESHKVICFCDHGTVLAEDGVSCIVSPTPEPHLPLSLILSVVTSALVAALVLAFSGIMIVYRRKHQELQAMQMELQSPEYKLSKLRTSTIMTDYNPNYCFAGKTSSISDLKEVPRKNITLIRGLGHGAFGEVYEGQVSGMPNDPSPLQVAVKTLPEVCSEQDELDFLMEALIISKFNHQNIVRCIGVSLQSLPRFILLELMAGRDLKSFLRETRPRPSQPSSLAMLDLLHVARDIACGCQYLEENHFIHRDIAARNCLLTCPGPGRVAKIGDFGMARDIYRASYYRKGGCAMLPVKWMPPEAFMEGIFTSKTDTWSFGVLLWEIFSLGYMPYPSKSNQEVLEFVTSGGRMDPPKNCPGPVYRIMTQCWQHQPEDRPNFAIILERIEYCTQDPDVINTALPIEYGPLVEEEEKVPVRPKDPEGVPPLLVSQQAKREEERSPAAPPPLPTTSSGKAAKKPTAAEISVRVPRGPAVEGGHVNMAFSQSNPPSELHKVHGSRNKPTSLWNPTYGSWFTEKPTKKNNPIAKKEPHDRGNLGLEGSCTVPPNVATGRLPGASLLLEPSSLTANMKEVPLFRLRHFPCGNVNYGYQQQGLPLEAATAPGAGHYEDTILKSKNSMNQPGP
For the next assay, the target named is T3, Ba/F3(EML4-ALK) cells (Homo sapiens, UniProt Q9UM73).
T3 construct: fused on or other part: Q9HC35 (Echinoderm microtubule-associated protein-like 4)
T3 sequence (Q9UM73 whole entry, change not shown, the tested form may be a part): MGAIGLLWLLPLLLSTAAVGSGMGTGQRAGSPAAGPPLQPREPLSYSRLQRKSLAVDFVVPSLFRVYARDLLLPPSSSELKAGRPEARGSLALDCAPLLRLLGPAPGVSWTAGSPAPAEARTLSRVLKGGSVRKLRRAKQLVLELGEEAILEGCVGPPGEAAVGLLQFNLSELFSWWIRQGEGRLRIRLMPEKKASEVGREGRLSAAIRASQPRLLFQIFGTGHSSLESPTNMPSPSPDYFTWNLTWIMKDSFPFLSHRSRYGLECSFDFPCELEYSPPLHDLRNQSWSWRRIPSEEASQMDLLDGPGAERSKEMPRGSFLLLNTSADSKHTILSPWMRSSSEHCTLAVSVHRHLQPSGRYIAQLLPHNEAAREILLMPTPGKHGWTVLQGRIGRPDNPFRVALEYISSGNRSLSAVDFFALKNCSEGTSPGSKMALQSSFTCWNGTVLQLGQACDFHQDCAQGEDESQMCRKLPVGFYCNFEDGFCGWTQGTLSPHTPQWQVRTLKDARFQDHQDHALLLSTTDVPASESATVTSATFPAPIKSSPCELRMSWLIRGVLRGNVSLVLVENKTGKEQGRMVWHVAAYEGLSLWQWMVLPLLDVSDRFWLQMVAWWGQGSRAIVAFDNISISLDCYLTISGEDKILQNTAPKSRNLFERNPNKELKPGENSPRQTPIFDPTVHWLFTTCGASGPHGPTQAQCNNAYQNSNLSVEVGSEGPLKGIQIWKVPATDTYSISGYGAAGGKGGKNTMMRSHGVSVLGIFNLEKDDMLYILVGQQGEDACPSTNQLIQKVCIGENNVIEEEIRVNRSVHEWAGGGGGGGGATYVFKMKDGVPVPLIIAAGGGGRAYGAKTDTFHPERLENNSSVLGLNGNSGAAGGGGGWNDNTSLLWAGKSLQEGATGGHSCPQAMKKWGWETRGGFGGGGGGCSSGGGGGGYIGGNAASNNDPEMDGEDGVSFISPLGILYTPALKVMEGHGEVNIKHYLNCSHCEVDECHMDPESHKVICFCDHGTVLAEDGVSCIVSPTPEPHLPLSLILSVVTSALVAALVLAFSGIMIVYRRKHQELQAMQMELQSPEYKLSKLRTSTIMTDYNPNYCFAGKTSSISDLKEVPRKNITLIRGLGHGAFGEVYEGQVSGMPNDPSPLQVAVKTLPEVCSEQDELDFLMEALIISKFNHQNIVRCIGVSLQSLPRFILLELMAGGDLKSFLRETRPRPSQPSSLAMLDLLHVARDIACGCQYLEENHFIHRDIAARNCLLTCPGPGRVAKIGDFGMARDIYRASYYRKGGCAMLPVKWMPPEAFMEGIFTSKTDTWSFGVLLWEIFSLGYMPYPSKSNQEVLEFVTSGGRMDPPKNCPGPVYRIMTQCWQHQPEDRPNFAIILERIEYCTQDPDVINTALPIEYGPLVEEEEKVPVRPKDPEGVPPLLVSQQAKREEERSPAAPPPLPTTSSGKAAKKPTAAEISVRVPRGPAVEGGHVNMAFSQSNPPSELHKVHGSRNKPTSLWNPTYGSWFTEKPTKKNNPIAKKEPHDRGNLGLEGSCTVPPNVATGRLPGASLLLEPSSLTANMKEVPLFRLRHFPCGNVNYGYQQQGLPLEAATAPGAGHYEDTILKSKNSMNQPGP
Put plainly: Assay of activity on Ba/F3(EML4-ALK) cells (CTG, 72 h). In kind it is cell-based. The note with it: read-out: IC50 (nM) Ba/F3(EML4-ALK). A digest of the protocol:
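Ba/F3(EML4-ALK) cells, 700 per well, were exposed to 3-fold serial compound dilutions for 72 h at 37° C, 5% CO2, and viability was then read by CTG luminescence.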

The target of assay [5] is T2, EGFR^L858R/T790M/C797S. Description: Assay of activity of compounds to induce EGFR protein degradation (Alpha counts). The class given is cell-based. Further details: expressed in transfected cells; host or cells: Ba/F3. The note with it: 24 h. The source says:
(§2) Assay of activity of compounds to induce EGFR^58R/IT790M/C797S and EGFR^Dell9/T790M/C797S protein degradation
(§3) In order to further explain the reason why the compounds of the present disclosure have inhibitory activity on Ba/F3(EGFR^58R/IT790M/C797S) and Ba/F3(EGFR^Dell9/T790M/C797S) cells, representative compounds C176 and C213 were selected to study the mechanism of action of the compounds, and observe their effects on EGFR^58R/IT790M/C797S and EGFR^Dell9/T790M/C797S protein levels.
(§4) Ba/F3(EGFR^58R/IT790M/C797S) and Ba/F3(EGFR^Dell9/T790M/C797S) cells were cultured according to the culture conditions recommended by ATCC, and analyzed by index.
(§5) Complete medium: 1640 medium, 10% FBS, 1× glutamine, 1× penicillin-streptomycin.
(§6) Culture conditions: incubated at 37° C., 95% air, 5% CO2 incubator.
(§7) (2) Compound stock solution: 10 mM stock solution in DMSO, stored at −20° C.
(§8) (3) Preparation of cell suspension:
(§9) The cells in the cell culture bottle were collected, and the cells with viability of >90% can be used in the assay. Cells were seeded in a 96-well plate with 40 μL cells, 1*10^5 cells/well.
(§10) Compound was diluted 3× with DMSO, starting at 1.0 mM (for EGFR^58R/IT790M/C797S assay) and 5 mM (for EGFR^Dell9/T790M/C797S assay), respectively, into 10 concentrations to prepare working solutions.
(§11) (5) Compound was pipetted into the 96-well plate to treat cells in a 37° C., 95% air, 5% CO2 incubator for 24 h.
(§12) 1) 1 μg/mL of EGF activated cells were treated for 10 min;
(§13) 2) After the compound treatment, lysis buffer was added to lyse cells; 10 μL of cell lysate was transferred to a 384-well plate; in addition, control lysate and negative control plus 5 μL of acceptor mix were added to the 384-well plate, and shaken on a shaker for 1-2 min;
(§14) 3) 5 μL of donor mix was added to each well; the 384-well plate was sealed, shaken on a shaker for 1-2 min, left in the dark at room temperature overnight, and read with an enzyme labeling instrument.
(§15) Alpha counts were fitted by logarithmic treatment of compound concentration with Graphpad Prism 8.0.
(§16) Y=Bottom+(Top−Bottom)/(1+10^((LogIC50−X)*HillSlope))
(§17) X: logarithm of compound concentration; Y: Alpha Counts.

Assay [6] deals with T1, EGFR^Del19/T790M/C797S. Described as above. In kind it is cell-based. Also on record: expressed in transfected cells; host or cells: Ba/F3. To be noted: 24 h.
Text: as §2, §3, §4, §5, §6, §7, §8, §9, §10, §11, §12, §13, §14, §15, §16, §17

The results in this text go back to patent publication US20220306659A1, “COMPOUND INHIBITING AND INDUCING DEGRADATION OF EGFR AND ALK” (BEIJING TIDE PHARMACEUTICAL CO., LTD., priority 2019, published 2022).

Sequence of ALK (Q9UM73 19-1620): as the sequence (Q9UM73 19-1620 G1202R) above, with R1184G counted along it

Broadly, the IC50 is the concentration that gives 50% inhibition. For `COc1cc(N2CCC(N3CCN(CCCCCCCCCOc4cccc5c4C(=O)N(C4CCC(=O)NC4=O)C5=O)CC3)CC2)ccc1Nc1ncc(Cl)c(Nc2ccccc2P(C)(C)=O)n1` (stereo not shown) [Compound A11, 4-((9-(4-(1-(4-((5-chloro-4-((2-(dimethylphosphoryl)phenyl)amino)pyrimidin-2-yl)amino)-3-methoxyphenyl)piperidin-4-yl)piperazin-1-yl)nonyl)oxy)-2-(2,6-dioxopiperidin-3-yl)isoindoline-1,3-dione], the IC50 on EGFR^Del19/T790M/C797S [1] fell in the range of 1 to 100 nM; at EGFR^L858R/T790M/C797S [2] it was 1 to 100 nM; against ALK, 1 to 100 nM; at ALK^G1202R it was 101 to 200 nM. For the same compound, the values for the GI50 (in assay [3]; in [4]; on Ba/F3(EML4-ALK) cells) were 1 to 100 nM, 101 to 200 nM and 1 to 100 nM, respectively.
`COc1cc(N2CCC(N3CCN(CCOCC#Cc4cccc5c4CN(C4CCC(=O)NC4=O)C5=O)CC3)CC2)ccc1Nc1ncc(Cl)c(Nc2ccccc2P(C)(C)=O)n1` (stereo not shown) [Compound C176, 3-(4-(3-(2-(4-(1-(4-((5-chloro-4-((2-(dimethylphosphoryl)phenyl)amino)pyrimidin-2-yl)amino)-3-methoxyphenyl)piperidin-4-yl)piperazin-1-yl)ethoxy)prop-1-yn-1-yl)-1-oxoisoindolin-2-yl)piperidine-2,6-dione]: the 50% inhibitory concentration (IC50) on EGFR^L858R/T790M/C797S [2] fell in the range of 1 to 100 nM. Besides, the GI50 (in [4]; at Ba/F3(EML4-ALK) cells) was 1 to 100 nM in each case. At EGFR^L858R/T790M/C797S [5] (Ba/F3(EGFR^L858R/T790M/C797S) cells, 0.01 nM to 1000 nM, FIG. 1, read-out: DC50 of EGFR^L858R/T790M/C797S protein level), the DC50 was 31.4 nM. The “effect on EGFR^L858R/T790M/C797S protein level (in words)” value on EGFR^L858R/T790M/C797S [5] (Ba/F3 cells, dose-dependent) is “significantly reduces”.
On to `COc1cc(N2CCC3(CCN(CCCCCOc4cccc5c4CN(C4CCC(=O)NC4=O)C5=O)CC3)CC2)c(C)cc1Nc1ncc(Br)c(Nc2ccc3nccnc3c2P(C)(C)=O)n1` (stereo not shown) [Compound C213, 3-(4-((5-(9-(4-((5-bromo-4-((5-(dimethylphosphoryl)quinoxalin-6-yl)amino)pyrimidin-2-yl)amino)-5-methoxy-2-methylphenyl)-3,9-diazaspiro[5.5]undecan-3-yl)pentyl)oxy)-1-oxoisoindolin-2-yl)piperidine-2,6-dione], for which the GI50 in assay [3] and in assay [4] was 1 to 100 nM in each case. The DC50 at EGFR^Del19/T790M/C797S [6] (Ba/F3(EGFR^Del19/T790M/C797S) cells, 0.1 nM to 10000 nM, FIG. 2, read-out: DC50 of EGFR^Del19/T790M/C797S protein level) was 11.3 nM. The “effect on EGFR^Del19/T790M/C797S protein level (in words)” value at EGFR^Del19/T790M/C797S [6] (Ba/F3 cells, dose-dependent) is on record as “significantly reduces”.
